Key:
[1] = tested on: HepG2 cells; assay: Cytotoxicity tests (trypan blue, MTT) and apoptosis test (Cell Death ELISA, DNA fragmentation) on HepG2 cells
Description: (§1) The effects of toxic compounds on RNA splicing regulation defects were tested as follows. HepG2 hepatocyte cells were treated with different doses of three toxic compounds (ethanol, camptothecin, PMA (phorbol 12-myristate 13-acetate)). Two cytotoxicity tests (trypan blue, MTT) were performed at different time points: 4 h and 18 h for ethanol; 4 h and 18 h for camptothecin; 18 h and 40 h for PMA.
(§2) Trypan blue is a dye that can be incorporated by […] cells. […] The experimental points are determined in triplicate.
(§3) The MTT test is a colorimetric test measuring the capacity of living cells to convert soluble tetrazolium salts (MTT) into an insoluble formazan precipitate. These dark blue formazan crystals can be dissolved and their concentration determined by measuring absorbance at 550 nm. Thus, after overnight seeding of 24-well dishes with 150,000 cells, followed by treatment of the cells with the toxic compounds, 50 μl of MTT (Sigma) are added (at a concentration of 5 mg/ml in PBS). The formazan crystal formation reaction is carried out for 5 h in a CO2 incubator (37° C., 5% CO2, 95% humidity). After addition of 500 μl of solubilization solution (0.1 N HCl in isopropanol-Triton X-100 (10%)), the crystals are dissolved with stirring and their absorbance is measured at 550 to 660 nm. Determinations are done in triplicate with suitable controls (viability, cell death, blanks).
(§4) A test of apoptosis or programmed cell death was also performed by measuring DNA fragmentation with an anti-histone antibody and ELISA. The Cell Death ELISA Plus from Roche was used.

[2] = tested on: bcl-X isoforms; assay: RT-PCR of BCL-X isoforms in treated HepG2 cells; type: cell-based, human; conditions: 4 h, RT-PCR (FIG. 19)
Description: (§5) HepG2 cells were thus treated with these three concentrations of these three compounds for 4 h in the case of ethanol and camptothecin and for 18 h in the case of PMA. […] These initial strands served as templates for PCR amplification reactions (94° C. 1 min, 55° C. 1 min, 72° C. 1 min, 30 cycles) by means of the following oligonucleotide primers: [table] These primers correspond to the regions common to the different described isoforms of bcl-X (bcl-XI, bcl-Xs, BCL-Xβ) (Boise et al., (1993), Cell 74: 597-608; U72398 (Genbank)) and should amplify a single 204 base pair fragment for these three isoforms.

[3] = in vitro; conditions: human
Description: as §1, §2, §3, §4

[4] = tested on: FASR isoforms; assay: RT-PCR of FASR isoforms in treated HepG2 cells; type: cell-based, human; conditions: 4 h, RT-PCR (FIG. 19)
Description: as §5, with “certain FASR” for “the different described”, “isoforms” for “isoforms of bcl-X (bcl-XI, bcl-Xs, BCL-Xβ) (Boise et al., (1993), Cell 74: 597-608; U72398 (Genbank))”, “478” for “single 204”, “wild type form FasR, 452 base pairs for isoform Δ8 and 415 for isoform ΔTM.” for “these three isoforms.”

[5] = tested on: HepG2 cells; conditions: 0.1 M ethanol for 18 hours (FIG. 9)
Description: A more complex situation was examined. […] RNAs were extracted from cells that were or were not subjected to treatment. The aforementioned DATAS variant (preparation of biotinylated ss cDNA, cross hybridizations in liquid phase, application of a magnetic field to separate the species, RNase H digestion) was effected with untreated cells in the reference condition (or condition A) and with treated cells in the test condition (or condition B) (FIG. 9). As the extracted RNAs were not radiolabeled, the RNAs generated by RNase H digestion were visualized by carrying out an exchange reaction to replace the RNA 5′ phosphate with a labeled phosphate, by means of T4 polynucleotide kinase and gamma-P^32ATP. These labeled products were then loaded on an acrylamide/urea gel and analyzed by exposure using an Instant Imager (Packard Instruments).

[6] = tested on: MACH-α (Caspase-8) isoforms; assay: RT-PCR of MACH-α isoforms in treated HepG2 cells; type: cell-based, human; conditions: camptothecin 1 μg/ml, 4 h, RT-PCR (FIG. 19)
Description: HepG2 cells were thus treated with these three concentrations of these three compounds for 4 h in the case of ethanol and camptothecin and for 18 h in the case of PMA. Messenger RNAs were purified on Dynal-Oligo-(dT) beads starting from total RNAs purified with the Rneasy kit (Quiagen). cDNA was synthesized from these messenger RNAs using Superscript reverse transcriptase (Life Technologies) and random hexamers as primers
These initial strands served as templates for PCR amplification reactions (94° C. 1 min, 55° C. 1 min, 72° C. 1 min, 30 cycles) by means of the following oligonucleotide primers: […]
These primers correspond to the regions common to the different described isoforms of MACH-α (1, 2 and 3, respectively amplifying 595, 550 and 343 base pairs). MACH-α (Caspase-8) is a protease involved in programmed cell death (Boldin et al., (1996), Cell, 85: 803-815).

For `CCCCCCCCCCCCCC(=O)O[C@@H]1[C@@H](C)[C@@]2(O)[C@@H](C=C(CO)C[C@]3(O)C(=O)C(C)=C[C@@H]23)[C@@H]2C(C)(C)[C@]12OC(C)=O` [PMA, phorbol 12-myristate 13-acetate], which “IC50 in cytotoxicity and apoptosis tests” value ([1]; HepG2 cells, trypan blue, MTT, Cell Death ELISA, 18 h and 40 h, stated concentration well below measured IC50) is on record?
Its value is over 0.05 mg/L.

For `CCO` [ethanol], which bcl-X isoform pattern ([2]; ethanol 0.1 M) is on record?
The bcl-X isoform pattern was “induces the disappearance of bcl-x which is replaced by a shorter isoform”.

What about the IC50 [3] of the same molecule?
Its IC50 is over 100 mM.

And the “cytotoxicity and DNA degradation” value [1]?
The value was “signs of cytotoxicity and DNA degradation via internucleosomal fragmentation”.

And the “fas receptor isoform pattern” value ([4]; ethanol 0.1 M)?
Its value is “induces an increase in the long wild type form of the fas receptor at the expense of the shorter isoform”.

What about the “RNA splicing signatures (A/B and B/A signals versus A/A)” value [5] of the same molecule?
The value was “can induce a reprogramming of RNA splicing events”.

With `CC[C@@]1(O)C(=O)OCc2c1cc1n(c2=O)Cc2cc3ccccc3nc2-1` [camptothecin] as the molecule, how does the bcl-X isoform pattern ([2]; camptothecin 1 μg/ml) read?
Its bcl-X isoform pattern is “induces the appearance of a new bcl-X isoform”.

And the IC50 ([3]; HepG2 hepatocyte cells)?
Its IC50 is over 1 mg/L.

What about the “expression of isoform MACH-α1” value [6] of the same molecule?
Its value is “decrease”.

And the “expression of isoform MACH-α3” value [6]?
The value was “increase”.

What about the “fas receptor isoform pattern” value ([4]; camptothecin 1 μg/ml) of the same molecule?
Its value is “induces a decrease in the wild type form of the fas receptor, replaced by expression of a shorter isoform which may correspond to Fas ΔTM”.

— patent US8003375B2, “Qualitative differential screening” (ExonHit Therapeutics S.A., priority 1998, dated 2011)
